The target in the test is T1, xylanase II (XYN II) (Trichoderma reesei, UniProt P36217).
T1 construct: gene xyn2; native secreted enzyme purified from wheat-straw culture supernatant of T. reesei QM 9414
As to the kind of experiment: differential scanning calorimetry. In kind it is binding. The note with it: 0.4 M GL, 1 mg/mL protein, 0.1 M sodium citrate pH 5, scan rate 15°C/h; absolute Tm, not a shift; control without GL 57.27°C (irreversible). From the text:
differential scanning calorimetry on xylanase II (XYN II)

T1 sequence (P36217 34-223): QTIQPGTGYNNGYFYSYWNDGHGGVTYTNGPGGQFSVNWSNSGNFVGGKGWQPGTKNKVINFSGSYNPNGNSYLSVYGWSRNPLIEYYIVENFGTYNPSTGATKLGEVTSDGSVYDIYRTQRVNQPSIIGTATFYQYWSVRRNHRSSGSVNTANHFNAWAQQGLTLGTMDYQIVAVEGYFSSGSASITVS

Turning to `O=C1O[C@H](CO)[C@@H](O)[C@H](O)[C@H]1O` (mixture of isomers) [GL, D-glucono-1,5-lactone], the Global was determined as 54.1 °C.

Values taken from paper PMC4170777, “Effect of Temperature on Xylanase II from Trichoderma reesei QM 9414: A Calorimetric, Catalytic, and Conformational Study” (Enzyme Research, 2014).
